From patent publication EP4644396A1 (Visionpharma (Nantong) Co., Ltd, priority 2022, dated 2024)

Target: T1, human TLR7 (Homo sapiens, UniProt Q9NYK1)
T1 sequence (Q9NYK1 27-1049): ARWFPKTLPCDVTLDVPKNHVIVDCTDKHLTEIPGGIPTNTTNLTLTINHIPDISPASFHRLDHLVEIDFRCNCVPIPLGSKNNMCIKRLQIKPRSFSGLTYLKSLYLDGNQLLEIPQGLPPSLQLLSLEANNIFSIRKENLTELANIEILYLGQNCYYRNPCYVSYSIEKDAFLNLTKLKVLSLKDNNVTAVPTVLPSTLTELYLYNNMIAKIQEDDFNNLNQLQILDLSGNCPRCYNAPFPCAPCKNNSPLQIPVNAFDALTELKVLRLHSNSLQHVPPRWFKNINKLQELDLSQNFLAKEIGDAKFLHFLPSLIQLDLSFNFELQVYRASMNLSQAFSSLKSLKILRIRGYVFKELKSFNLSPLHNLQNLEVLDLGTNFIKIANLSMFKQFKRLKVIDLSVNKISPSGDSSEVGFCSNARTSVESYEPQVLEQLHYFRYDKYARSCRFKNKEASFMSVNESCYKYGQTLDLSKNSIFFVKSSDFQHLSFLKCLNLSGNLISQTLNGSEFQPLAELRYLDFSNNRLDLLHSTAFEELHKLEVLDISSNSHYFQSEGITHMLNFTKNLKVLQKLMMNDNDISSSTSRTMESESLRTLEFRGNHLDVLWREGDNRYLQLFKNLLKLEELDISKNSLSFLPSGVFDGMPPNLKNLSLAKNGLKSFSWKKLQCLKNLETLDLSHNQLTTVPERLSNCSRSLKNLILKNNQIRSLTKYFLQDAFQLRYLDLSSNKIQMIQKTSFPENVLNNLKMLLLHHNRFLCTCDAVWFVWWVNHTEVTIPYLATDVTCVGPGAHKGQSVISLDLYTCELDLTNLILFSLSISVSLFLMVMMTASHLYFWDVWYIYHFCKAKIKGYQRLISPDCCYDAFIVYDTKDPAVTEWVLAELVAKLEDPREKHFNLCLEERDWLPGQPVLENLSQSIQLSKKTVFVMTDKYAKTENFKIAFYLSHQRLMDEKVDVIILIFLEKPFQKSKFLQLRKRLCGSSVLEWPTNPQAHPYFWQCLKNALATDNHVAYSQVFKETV
Assay: HEK-Blue hTLR7 SEAP reporter gene inhibition assay
Type: cell-based
Details: HEK-Blue hTLR7 IC50 (µM)
Method: (§1) HEK-Blue cells with stable expression of human TLR7 or TLR8 were used in the evaluation of inhibitory activity of compounds in the present invention against TLR7 or TLR8, by using its ability to induce the SEAP reporting gene under the control of the fusion of IFN-β minimum promoters into five NF-κB and ap-1 binding sites, as follows: hTLR7 HEK-Blue cells (Invivogen, 80, 000 cells per well) or hTLR8 HEK-Blue cells (60, 000 cells per well) were added to a 96-well cell culture plate. A solution of the testing compounds were added to each well, with the final concentration of tested compounds in the medium ranged from 0.001 to 36 µM and the culture was incubated for 15 minutes. M5049 was used as positive controls in the testing.
(§2) Then a TLR7 ligand (Gardiquimod, purchased from MedChemExpress, with final concentration of ligand in cell culture medium kept at 10 µM) or a TLR8 ligand (purchased from MedChemExpress with final concentration in cell culture media at 10 µM) and the culture was incubated for 20 hours. According to the manufacturer's instructions, a HEK-Blue reagent Quanti-blue (Invivogen) was used to detect the SEAP levels in cell cultures. The half […] concentration or IC50 was calculated by using GraphPad Prism. […] Table 1: Activities of examples in this invention to hTLR7/8 in HEK-Blue Cells

`C[C@@H]1CN(c2ccc(C#N)n3ncc(F)c23)Cc2c3c(nn21)CCN(Cc1cn[nH]c1)C3` [Example I-54, (R)-4-(2-((1H-Pyrazole-4-yl)methyl) -7-methyl-1,3,4,7,8,10-hexahydropyridine[4 ', 3 ': 3, 4]pyrazole [1,5-a]pyrazine-9 (2H) -yl) -3-fluoropyrazole [1,5-a] pyridine-7-nitrile] and `C[C@@H]1CN(c2ccc(C#N)n3ncc(F)c23)Cc2c3c(nn21)CN(CC(=O)N1CCNCC1)[C@@H](C)C3` [Example I-113] cannot be ordered by IC50: < 0.05 µM for the first, < 0.05 µM for the second.

With `C[C@@H]1CN(c2ccc(C#N)n3ncc(F)c23)Cc2c3c(nn21)CN(CC(=O)N1CC2(COC2)C1)[C@@H](C)C3` [Example I-112, 4-((4R, 9S) -4,9-dimethyl-8-(2-oxydioxy-2-(2-oxytrioxy-6-nitrous [3.3]helium-6-ethyl)ethyl) -3,4,7,8,9, 10-hydropyridine [3 ', 4 ': 3, 4]pyrazole [1,5-a]pyrazine-2 (1 H) - yl) -3-fluoropyrazole [1,5-a] pyridine-7-nitrile] the IC50 was > 0.05 µM.

Same assay, conditions: hTLR7 HEK-Blue cells, TLR7 ligand Gardiquimod 10 µM, 20 hours, SEAP by Quanti-blue; class symbols; read-out: HEK-Blue hTLR7 IC50

Compared with `CNC(=O)CN1Cc2nn3c(c2C[C@@H]1C)CN(c1ccc(C#N)n2ncc(F)c12)C[C@H]3C` [Example I-101, 2-((4R,9S)-2-(7-cyanide-3-fluoropyridox and [1,5-a]pyridox-4-base)-4,9-dimethyl-1,2,3,4,9, 10-hydropyridox [3 ', 4 ': 3, 4]pyrazolo [1,5-a]pyrazine-8 (7 H) -yl)-N-methyl acetamide], `C[C@@H]1CN(c2ccc(C#N)n3ncc(F)c23)Cc2c3c(nn21)CN(CC(=O)N(C)C)[C@@H](C)C3` [Example I-102, 2-((4R,9S)-2-(7-cyano-3-fluoropyrazolo[1,5-a]pyridin-4-yl)-4,9-dimethyl-1,2,3,4,9,10-hexahydropyrido[3',4':3,4]pyrazolo[1,5-a]pyrazin-8(7H)-yl)-N,N-dimethylacetamide] is lower in IC50: > 0.05 µM for the first, < 0.05 µM for the second.

`C[C@@H]1CN(c2ccc(C#N)n3ncc(F)c23)Cc2c3c(nn21)CN[C@H](CC#N)C3` [Example I-86, 4-((4R,9S)-9-(cyanomethyl)-4-methyl-3,4,7,8,9,10-hexahydropyrido[3',4':3,4]pyrazolo[1,5-a]pyrazin-2(1H)-yl)-3-fluoropyrazolo[1,5-a]pyridine-7-carbonitrile] and `CCN1CCc2nn3c(c2C1)CN(c1ccc(C#N)n2ncc(F)c12)C[C@H]3C` [Example I-25, (R)-4-(2-ethyl-7-methyl-1,3,4,7,8,10-hexahydropyrido[4',3':3,4]pyrazolo[1,5-a]pyrazin-9(2H)-yl)-3-fluoropyrazolo[1,5-a]pyridine-7-carbonitrile] cannot be ordered by IC50: < 0.05 µM for the first, < 0.05 µM for the second.

Going from `CC(C)N1CCc2nn3c(c2C1)CN(c1ccc(C#N)n2ncc(F)c12)C[C@H]3C` [Example I-53, (R)-3-Fluoro-4-(2-isopropyl-7-methyl-1,3,4,7,8,10-hexahydropyrido[4',3':3,4]pyrazolo[1,5-a]pyrazin-9(2H)-yl)pyrazolo[1,5-a]pyridine-7-carbonitrile] to `CC(C)N1CCc2c(nn3c2CN(c2ccc(C#N)n4ncc(F)c24)C[C@H]3C)C1` [Example I-23, (R)-3-Fluoro-4-(8-isopropyl-4-methyl-3,4,7,8,9,10-hexahydropyrido[3',4':3,4]pyrazolo[1,5-a]pyrazin-2(1H)-yl)pyrazolo[1,5-a]pyridine-7-carbonitrile], the IC50 rises from < 0.05 µM to > 0.05 µM.

In the case of `C[C@@H]1CN(c2ccc(C#N)n3ncc(F)c23)Cc2c3c(nn21)CCC(C)(N)C3` (stereo partly drawn) [Example I-80, 4-((4R)-9-Amino-4,9-dimethyl-3,4,7,8,9,10-hexahydropyrazino[1,2-b]indazol-2(1H)-yl)-3-fluoropyrazolo[1,5-a]pyridine-7-carbonitrile], the IC50 is reported as > 0.05 µM.

Target: T2, human TLR8 (Homo sapiens, UniProt Q9NR97)
T2 construct: expressed in transfected cells
T2 sequence (Q9NR97 27-1041): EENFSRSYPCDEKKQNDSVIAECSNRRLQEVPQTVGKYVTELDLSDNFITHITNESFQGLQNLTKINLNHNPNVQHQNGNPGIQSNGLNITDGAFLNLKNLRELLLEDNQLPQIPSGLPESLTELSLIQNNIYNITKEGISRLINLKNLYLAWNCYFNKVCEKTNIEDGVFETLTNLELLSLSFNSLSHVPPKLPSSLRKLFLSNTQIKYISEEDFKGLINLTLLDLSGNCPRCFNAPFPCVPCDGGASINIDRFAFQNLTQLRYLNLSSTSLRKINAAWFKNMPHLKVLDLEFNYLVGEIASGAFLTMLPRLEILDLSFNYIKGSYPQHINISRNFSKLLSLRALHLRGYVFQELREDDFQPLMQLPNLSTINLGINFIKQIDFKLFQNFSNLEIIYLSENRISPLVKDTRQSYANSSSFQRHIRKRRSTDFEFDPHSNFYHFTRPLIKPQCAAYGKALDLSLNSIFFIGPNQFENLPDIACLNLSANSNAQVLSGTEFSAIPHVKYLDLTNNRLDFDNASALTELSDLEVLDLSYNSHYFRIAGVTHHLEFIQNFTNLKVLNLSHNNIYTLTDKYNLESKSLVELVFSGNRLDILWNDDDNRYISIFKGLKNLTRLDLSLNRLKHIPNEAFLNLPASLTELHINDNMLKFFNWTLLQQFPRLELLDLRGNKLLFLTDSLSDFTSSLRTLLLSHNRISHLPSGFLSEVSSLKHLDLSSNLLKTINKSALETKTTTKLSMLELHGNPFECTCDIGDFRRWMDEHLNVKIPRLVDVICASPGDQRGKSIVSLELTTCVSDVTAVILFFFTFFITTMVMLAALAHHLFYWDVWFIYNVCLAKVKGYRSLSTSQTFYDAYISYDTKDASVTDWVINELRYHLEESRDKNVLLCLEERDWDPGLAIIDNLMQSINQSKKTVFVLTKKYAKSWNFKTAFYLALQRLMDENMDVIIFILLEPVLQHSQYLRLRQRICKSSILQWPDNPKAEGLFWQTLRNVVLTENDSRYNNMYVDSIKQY
Assay: HEK-Blue hTLR8 SEAP reporter gene inhibition assay
Type: cell-based
Details: hTLR8 HEK-Blue cells, TLR8 ligand 10 µM, 20 hours, SEAP by Quanti-blue; class symbols; read-out: HEK-Blue hTLR8 IC50
Method: as §1, §2

In the case of `C[C@@H]1CN(c2ccc(C#N)n3ncc(F)c23)Cc2c3c(nn21)CC1CCC3N1` (stereo partly drawn) [Example I-44, 3-Fluoro-4-((4R)-4-methyl-1,3,4,7,8,9,10,11-octahydro-2H-8,11-epiminocyclohepta [3,4]pyrazolo[1,5-a]pyrazin-2-yl)pyrazolo[1,5-a]pyridine-7-carbonitrile], the IC50 is reported as < 100 nM.
